Source: patent US5786165A, “Herbicide test method” (Agrevo UK Limited, priority 1994, dated 1998)

How the values were obtained:
[1] = system: crude, desalted homogenates from pea seedlings; experiment: Adenylate metabolism pathway in a crude plant homogenate; assay type: in vitro ADME, Peas (Pisum sativum L var Onward); details: without ATP, 10 minutes at 25° C.
Description: Peas (Pisum sativum L var Onward) were grown in soil for 10 days at 25° C. with a 16 hour/8 hour light/dark cycle. The seedlings were harvested close to soil level and a crude homogenate of was prepared by homogenization in 2 volumes of ice cold buffer containing tris-HCl (0.1M, pH 7.4 with 5M NaOH), 0.1 mM dithiothreitol and 0.4M sucrose using a Waring blender (1 minute, top speed). The homogenate was passed through 6 layers of muslin and 2.5 ml desalted on a sephadex (Registered Trade Mark) PD10 column (1.5 cm×8 cm) which had been pre-equilibrated with the homogenization buffer. Protein was eluted using the same buffer. The assay contained, in a total volume of 250 μl, 50 mM Tris-HCl (pH 6.5), 50 mM KCl, 0.05% (w/v) BSA and […] protein. ATP (5 mM) was also included where indicated. The assay was started by the addition of [^14 C] adenosine (500 μM, 0.2 μCi). After incubation at 25° C. for 10 minutes, the reaction was stopped by the addition of 0.25 ml ice cold HClO4 (0.4M). Precipitated protein was removed by centrifugation (13,000 g, 2 minutes) and 0.4 ml of the resulting supernatant applied to phenylsilane bonded silica gel columns (500 mg) which had been previously washed with 2 volumes of methanol and then 2 ml 0.4M HClO4. Samples were eluted with 4 ml 0.4M HClO4. The pH of the eluate was adjusted on ice to between 5.5 and 7.0 with 5M KOH. The neutralised extract was centrifuged (13,000 g, 2 minutes) and evaporated to dryness in a Gyrovap (Registered Trade Mark). The sample was then re-dissolved in 0.5 ml 10 mM HCl and centrifuged (13,000 g, 2 minutes) prior to HPLC analysis. The products were analysed using reverse phase chromatography with a spherisorb (Registered Trade Mark) column (25 cm×0.46 cm), solvent 1: 95:5 10 mM KH2 PO4 : methanol; solvent 2: 88:12 10 mM KH2 PO4 : methanol, pH 5.3, step change at 6 minutes, Flow rate: 1 ml/minute.

[2] = system: plant AMP deaminase; experiment: Plant AMP deaminase inhibition assay; assay type: biochemical, Pea seedlings; details: for IC50: 10 minute preincubation, substrate concentration 640 μM, read-out: 50% inhibition of AMP deaminase activity
Description: (§1) Pea seedlings were excised near soil level, the stems quickly washed with distilled water and then stood upright in a […] containing 2 ml of compound solution or water (control). A section (approx 2 mm) was cut from the base of the stem while it was immersed to prevent air locks from forming in the xylem. The seedlings were incubated in the light at room temperature (approx 20° C.) in a moving air stream. At intervals, individual seedlings were extracted and the levels of AMP deaminase determined by extraction in 2 volumes ice cold citrate buffer (0.1M, pH 7), 0.5 mM dithiothreitol using a pestle and mortar. The homogenate was passed through 6 layers of muslin and loaded onto a sephadex gel filtration column (1.5 cm×8 cm) which had previously been equilibrated with 30 mM citrate (pH 7.1), 50 mM KCl and 0.5% (w/v) BSA (Assay buffer). The protein was eluted using the assay buffer and used directly for the enzyme assay. The assay is based on the release of ammonia (McCullough (1967), Clinica Chimica Acta, 17, 297) and contained in a total volume of 0.5 ml 60 mM citrate buffer (pH 7.1 with 5M NaOH) 100 mM KCl, 0.1% (w/v) BSA and 5 mM AMP. The reaction was started by the addition of 50 μl extract. At 15 minute intervals from 0 to 60 minutes, the reaction was stopped by the addition of 420 μl reagent 1 (0.1M phenol, 0.17 mM sodium nitroprusside) immediately followed by 275 μl reagent 2 (0.125M NaOH, 0.38M Na2 HPO4 and 5 ml HOCl in a total volume of 500 ml). Following incubation for 60 minutes at 55° C., the absorbance of the solutions at 625 nm was determined.
Pea seedlings were grown as described in Test Example 2. The seedlings were harvested close to soil level and homogenized in 2 volumes of ice cold phosphate buffer (pH 7.5) containing 0.1 mM dithiothreitol and 0.4M sucrose using a Waring blender (1 minute, top speed). All of the following operations were carried out at 4° C. The homogenate was filtered through 6 layers of muslin and centrifuged at 100,000 g for 20 minutes to remove cell debris. To the resulting supernatant was added 40% (w/v) ammonium sulphate while stirring constantly. The precipitate was collected by centrifugation (12,000 g, 15 minutes) and dissolved in 30 ml phosphate buffer (pH 7.5), 0.1 mM dithiothreitol then dialyzed overnight against 2 l of the same buffer. Insolubles formed during the overnight dialysis were removed by centrifugation (7,000 g, 10 minutes). The supernatant was applied to a phospho-cellulose column (1.5×8 cm) which had been pre-equilibrated with 0.1M phosphate buffer (pH 7.5). After loading, the column was washed with 14 ml phosphate buffer (0.1M, pH 7.5) and the enzyme eluted with 0.6M phosphate buffer (pH 7.5). Activity was determined using the ammonia release assay described in Test Example 3 above.

[3] = system: AMP deaminase; experiment: Extractable levels of AMP deaminase in treated pea seedlings; assay type: in vivo
Description: as §1, with “At 15 minute intervals from 0 to 60 minutes, the reaction was stopped by the addition of 420 μl reagent 1 (0.1M phenol, 0.17 mM sodium nitroprusside) immediately followed by 275 μl reagent 2 (0.125M NaOH, 0.38M Na2 HPO4 and 5 ml HOCl in a total volume of 500 ml).” left out

[4] = system: extractable ATP levels in pea seedlings; experiment: Measurement of extractable ATP levels; assay type: in vivo, Peas
Description: Peas were grown as described in Test Example 1 and exposed to carbocyclic coformycin via the transpiration stream as outlined in Test Example 3. Individual seedlings were rapidly frozen in liquid nitrogen. The frozen tissue was ground to a fine powder using a pestle and mortar then 1 ml ice cold 0.4M HClO4 was added. The frozen acid was ground to a fine powder tissue, the mixture allowed to thaw and then incubated on ice for 15 minutes. The extract was centrifuged (4,000 rpm, 5 minutes).
ATP measurements were made using the luciferase assay and a LUMAC Biocounter M2500 (6370 AC Landgraaf, The Netherlands). Samples were diluted 1:10,000 in water and 100 μl was assayed according to the manufacturer's instructions.

[5] = molecular target: T1, calf intestinal mucosa adenosine deaminase (Bos taurus, UniProt P56658); experiment: Mammalian adenosine deaminase inhibition assay; assay type: biochemical
T1 construct: calf intestinal mucosa adenosine deaminase; purchased Sigma Chemical Company Limited; host or cells: calf intestinal mucosa
Description: Mammalian Adenosine Deaminase Inhibition Assay
A suitable source of enzyme is calf intestinal mucosa adenosine deaminase supplied by the Sigma Chemical Company Limited. The assay employed follows the protocol provided by the supplier and measures a decrease in absorption at 265 nm as the substrate adenosine is utilized. A 10 minute preincubation of enzyme and inhibitor prior to addition of the substrate was employed.

[6] = system: Pea seedlings; experiment: In planta metabolism of carbocyclic coformycin; assay type: in vivo; details: 10 μM [3H] compound via the transpiration stream; 4 hours incubation
Description: Pea seedlings were grown as described in Test Example 2, harvested as described in Test Example 3 and then supplied with 10 μM (400 Ci mol^-1) [^3 H] carbocyclic coformycin via the transpiration stream. After incubation periods, pairs of seedlings were rapidly frozen in liquid nitrogen, ground to a fine powder and extracted in 2 ml ice cold 0.4M HClO4. The extracts were processed for HPLC analysis as described in Test Example 2 above except that the final sample was resuspended in 0.5 ml water instead of 10 mM HCl. [^3 H] carbocyclic coformycin and [^3 H] carbocyclic coformycin 5'-phosphate were separated using cation exchange chromatography with a Partisil (Registered Trade Mark) SCX column (8.0 cm×0.46 cm), 0.05M NH4 H2 PO4, pH 2.6; flow rate=2 ml/minute.

T1 sequence (P56658 whole entry): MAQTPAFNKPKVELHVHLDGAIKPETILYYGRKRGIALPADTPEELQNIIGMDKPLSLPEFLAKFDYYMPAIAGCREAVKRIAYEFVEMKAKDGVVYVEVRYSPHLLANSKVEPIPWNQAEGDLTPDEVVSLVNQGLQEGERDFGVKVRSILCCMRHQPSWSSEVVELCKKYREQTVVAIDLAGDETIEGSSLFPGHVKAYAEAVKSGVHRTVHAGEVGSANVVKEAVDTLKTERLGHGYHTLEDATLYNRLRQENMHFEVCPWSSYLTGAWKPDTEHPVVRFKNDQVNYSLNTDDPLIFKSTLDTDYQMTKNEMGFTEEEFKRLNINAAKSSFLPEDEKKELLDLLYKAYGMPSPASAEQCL

Row | SMILES | % of radiolabel as ADP [1] | % of radiolabel as AMP [1] | % of radiolabel as ATP [1] | % of radiolabel as IMP [1] | % of radiolabel as inosine [1] | % of radiolabel as adenosine ([1]; 500 µM) | inhibition of plant AMP deaminase (in words) [2] | IC50 [2] | extractable levels of AMP deaminase (in words) ([3]; applied to pea seedlings via the transpiration stream) | extractable levels of AMP deaminase, % of the control levels ([3]; treatment for 1 hour via the transpiration stream, control 19 μmols ammonia release per gram fresh weight per minute) | ATP levels relative to the control levels ([4]; 100 μM via the transpiration stream, 4 hours treatment, control 333 nmols ATP per gram fresh weight) | rise in extractable levels of ATP (in words) ([4]; in vivo) | inhibition of mammalian adenosine deaminase (in words) [5] | IC50 ([5]; 10 minute preincubation, substrate concentration 60 μM, read-out: 50% inhibition of adenosine deaminase) | major metabolite in planta [6]
1 | Nc1ncnc2c1ncn2[C@@H]1O[C@H](CO)[C@@H](O)[C@H]1O [[^14 C adenosine, adenosine] | 0% | 0% | 0% | 0% | 0% | 100% | – | – | – | – | – | – | – | – | –
2 | O=P(O)(O)OC[C@H]1C[C@@H](n2cnc3c2N=CNC[C@H]3O)[C@H](O)[C@@H]1O [carbocyclic coformycin 5'-phosphate] | – | – | – | – | – | – | potent inhibitor | 20 nM | – | – | – | – | – | – | –
3 | OC[C@H]1C[C@@H](n2cnc3c2N=CNC[C@H]3O)[C@H](O)[C@@H]1O [carbocyclic coformycin] | – | – | – | – | – | – | relatively poor inhibitor | 120000 nM | rapid decrease | 20-30% | approximately twice | remarkable rise | potent inhibitor | 25 nM | co-chromatographed with authentic carbocyclic coformycin 5'-phosphate
